The test system of data set [1] is severe SMA mouse model (Taiwanese model). As to the kind of experiment: Survival of severe SMA mice after a single subcutaneous injection at PD0. The following applies: until humane endpoint. The class given is in vivo. How it is done:
To examine whether DG9 peptide can increase the efficacy of PMO, we conjugated it to an 18-mer PMO with a sequence identical to nusinersen. The DG9-PMO, unconjugated PMO, and MOE were injected into SMA model mice [Cg-Tg(SMN2)2HungSmn1^tm1Hung/J; abbreviated as Smn^–/– SMN2^Tg/Tg; commonly called the Taiwanese model]. We also used an arginine-rich peptide (R6G) that is currently being explored in clinical trials for Duchenne muscular dystrophy (DMD) and used in preclinical studies for Hutchinson-Gilford progeria syndrome ([37], [38]). The benchmark control peptide R6G was conjugated to the same PMO sequence used in our study (R6G-PMO). […] We subcutaneously injected mice with the AOs or saline (nontreated, NT) administered at postnatal day 0 (PD0) at 2 doses: 40 mg/kg or 80 mg/kg. In our preliminary experiments, we also tested lower doses of 10 and 20 mg/kg (data not shown). […] The survival was recorded until a humane endpoint was reached. For the 40 mg/kg doses, the median survival was 12 days for unconjugated PMO, 15.5 days for MOE, and 17 days for R6G-PMO, which was increased to 58 days for DG9-PMO treatment (Figure 1A and Supplemental Figure 1A; supplemental material available online with this article; https://doi.org/10.1172/jci.insight.160516DS1). The median survival increased to 57 days for unconjugated PMO, 64 days for MOE, and 121 days for DG9-PMO at the higher dose of 80 mg/kg (Figure 1A). […] In spite of no statistical difference between DG9-PMO and MOE groups, the median survival of DG9-PMO still was higher than MOE, as only 1 mouse was alive until PD200 following a 40 mg/kg injection of MOE.
SMA-transgenic mice [JAX stock 005058 FVB.Cg-Tg(SMN2)2HungSmn1^tm1Hung/J] (Smn^–/–; SMN2^Tg/Tg), also known as Taiwanese mice, were purchased from Jackson Laboratory. Heterozygous mice for Smn1 (Smn1^+/–; SMN2^–/–) generated by us were crossed with mice homozygous for Smn1 Smn^–/–; SMN2^Tg/Tg generated by us to obtain the SMA mice (Smn^–/–; SMN2^Tg/–) or the heterozygous healthy control (Smn1^+/–; SMN2^Tg/–). The SMA mice display a severe overt phenotype similar to patients with SMA type I. The mice were genotyped using a PCR assay on genomic DNA isolated from tail biopsies using the Phire Tissue Direct PCR Kit (Thermo Fisher Scientific) as per the manufacturer’s instructions. The DNA was amplified using the primers described in Supplemental Table 1 using the condition Mouse Smn: 98°C/5 minutes → 98°C/5 s 58°C/10 s 72°C/10 s × 35 cycles → 72°C/1 minute.
Injections were carried out using a 30-gauge Hamilton syringe. SMA mice identified following genotyping were randomly assigned to a treatment group. The researcher injecting mice was blinded to the treatment. SMA neonates were subcutaneously injected with 40 or 80 mg/kg of AOs at PD0, while NT and heterozygous control mice were injected with saline (n = 10–49) per group. Tissues including the quadriceps muscle, liver, kidney, spleen, diaphragm, intercostal muscle, heart, brain, and spinal cord were collected and snap-frozen in dry ice– cooled isopentane, then subsequently stored at –80°C.

In the next data set the test system is severe SMA mouse model. As to the kind of experiment: Muscle pathology by H&E staining (myofiber size, centrally nucleated fibers). The class given is in vivo. An excerpt:
Atrophic musculature is a classical characteristic feature of SMA with diminished skeletal muscle fiber size. To determine the treatment effects on muscle pathology, we assessed the physiology and architecture of the myofibers of 2 affected muscle groups, the quadriceps and intercostal muscles, as well as the sparingly affected diaphragm at PD7 and PD30 ([42], [43]). We quantified the cross-sectional area (CSA), the minimal Feret’s diameter, and centrally nucleated fibers, a hallmark of pathological muscle degeneration/regeneration cycle, for at least 500 myofibers per muscle for each treatment using hematoxylin and eosin (H&E) staining at PD7 and PD30 (Figure 4, A and B, and Supplemental Figures 5 and 6). […] The effect of DG9-PMO persisted at PD30 (Supplemental Figure 6).
Cryosections (7 μm) of the quadriceps muscle, diaphragm, and intercostal muscle were stained with Meyer’s H&E reagents (Electron Microscopy Reagents) ([70]). For the centrally nucleated fibers and myofiber size, 500–800 were randomly selected per muscle per treatment. The CSA and minimal Feret’s diameter were quantified using ImageJ (NIH). All H&E analyses were performed in a blinded fashion.

The test system of the next data set is CD68+ macrophages. As to the kind of experiment: CD68+ macrophage detection in quadriceps muscle. The data set is classed as in vivo, mouse. The settings on record: 40 mg/kg s.c. at PD0, quadriceps muscle sections at PD7. An excerpt: Peptides can typically pose as antigens, leading to immune reactions. Therefore, we examined the susceptibility of DG9-PMO to cause immune activation at an early neonatal stage, by looking at CD68^+ cells, indicative of circulating and tissue macrophages, in the quadriceps muscle sections at PD7 (Supplemental Figure 9, A and B). […] The apparent reduction in circulating macrophages following DG9-PMO treatment is likely due to amelioration of the atrophic musculature, which would compensate for any elevation seen from the treatment itself.
Cryosections (7 μm) of the quadriceps muscle were fixed with 4% PFA. The sections were incubated with rat anti-mouse CD68 antibody (MCA1957T, Bio-Rad). The number of CD68^+ cells was counted and averaged from at least 5 sections per sample at random intervals at 20× original magnification.

Setting [2] is: single subcutaneous injection at PD0, 40 mg/kg.
Setting [3] is: single subcutaneous injection at PD0, 80 mg/kg.

For the compound `CC(=O)N[C@@H](Cc1ccc(O)cc1)C(=O)N[C@@H](C)C(=O)N[C@H](CCCNC(=N)N)C(=O)N[C@H](C(=O)N[C@@H](CCCNC(=N)N)C(=O)N[C@@H](CCCNC(=N)N)C(=O)N[C@H](CCCNC(=N)N)C(=O)NCC(=O)N1CCC[C@H]1C(=O)N[C@@H](CCCNC(=N)N)C(=O)NCC(=O)N[C@@H](Cc1ccc(O)cc1)C(=O)N[C@@H](C)C(=O)N[C@H](CCCNC(=N)N)C(=O)N[C@H](C(=O)N[C@@H](CCCNC(=N)N)C(=O)N[C@@H](CCCNC(=N)N)C(=O)N[C@H](CCCNC(=N)N)C(=O)NCC(=O)N1CCC[C@H]1C(=O)N[C@@H](CCCNC(=N)N)C(=O)N[C@H](CCCNC(=N)N)C(=O)N1C[C@@H](COP(=O)(N(C)C)N2C[C@@H](COP(=O)(N(C)C)N3C[C@@H](COP(=O)(N(C)C)N4C[C@@H](COP(=O)(N(C)C)N5C[C@@H](COP(=O)(N(C)C)N6C[C@@H](COP(=O)(N(C)C)N7C[C@@H](COP(=O)(N(C)C)N8C[C@@H](COP(=O)(N(C)C)N9C[C@@H](COP(=O)(N(C)C)N%10C[C@@H](COP(=O)(N(C)C)N%11C[C@@H](COP(=O)(N(C)C)N%12C[C@@H](COP(=O)(N(C)C)N%13C[C@@H](COP(=O)(N(C)C)N%14C[C@@H](COP(=O)(N(C)C)N%15C[C@@H](COP(=O)(N(C)C)N%16C[C@@H](COP(=O)(N(C)C)N%17C[C@@H](COP(=O)(N(C)C)N%18C[C@@H](COP(=O)(N(C)C)N%19CCC(C(N)=O)CC%19)O[C@@H](n%19cc(C)c(=O)[nH]c%19=O)C%18)O[C@@H](n%18ccc(N)nc%18=O)C%17)O[C@@H](n%17cnc%18c(N)ncnc%18%17)C%16)O[C@@H](n%16ccc(N)nc%16=O)C%15)O[C@@H](n%15cc(C)c(=O)[nH]c%15=O)C%14)O[C@@H](n%14cc(C)c(=O)[nH]c%14=O)C%13)O[C@@H](n%13cc(C)c(=O)[nH]c%13=O)C%12)O[C@@H](n%12ccc(N)nc%12=O)C%11)O[C@@H](n%11cnc%12c(N)ncnc%12%11)C%10)O[C@@H](n%10cc(C)c(=O)[nH]c%10=O)C9)O[C@@H](n9cnc%10c(N)ncnc%109)C8)O[C@@H](n8cnc9c(N)ncnc98)C7)O[C@@H](n7cc(C)c(=O)[nH]c7=O)C6)O[C@@H](n6cnc7c(=O)[nH]c(N)nc76)C5)O[C@@H](n5ccc(N)nc5=O)C4)O[C@@H](n4cc(C)c(=O)[nH]c4=O)C3)O[C@@H](n3cnc4c(=O)[nH]c(N)nc43)C2)O[C@@H](n2cnc3c(=O)[nH]c(N)nc32)C1)C(C)C)C(C)C` (some centres unmarked) [DG9-PMO], the values for the median survival in data set [1] (setting [2]) and in data set [1] (setting [3]) were 58 days and 121 days, respectively. For the same compound, the centrally nucleated fibers result in the data set on severe SMA mouse model (40 mg/kg s.c. at PD0, PD7) is given as “significant decrease in the percentage of centrally nucleated fibers”. For the same compound, in the data set on severe SMA mouse model (40 mg/kg s.c. at PD0, quadriceps, diaphragm, intercostal muscle), the “Feret's diameter and CSA of myofibers at PD7 compared with NT control” value was “significantly larger in all 3 muscle groups”. Moreover, the “number of CD68+ macrophages compared with the Hets” value in the data set with CD68+ macrophages was “no significant difference”.

For the compound “unconjugated PMO: PMO targeting ISS-N1 intron 7 (5′ TCACTTTCATAATGCTGG 3′), purchased from Gene Tools LLC (all phosphorodiamidate morpholino (PMO)) [reference compound]”, the median survival was 12 days in data set [1] (setting [2]) and 57 days in data set [1] (setting [3]). In addition, in the data set with severe SMA mouse model (40 mg/kg s.c. at PD0, all 3 tissue types), the “myofiber size at PD30 compared with DG9-PMO” value is recorded as “significantly smaller myofibers”.

These data come from paper PMC10077475, “DG9-conjugated morpholino rescues phenotype in SMA mice by reaching the CNS via a subcutaneous administration” (JCI Insight, 2023).
